# Test results as given in a melting point compilation (Tetko et al.; mined from patent text by program, amines drawn as free bases though some values may be those of a salt).
row,Compound,melting point [°C]
1,O=C(NC(Cc1ccccc1)c1ccccn1)c1ccccc1 (stereo unspecified),153 to 154
2,COc1ccnc(CSc2nc3cscc3n2C(=O)OCc2ccccc2)c1,102 to 104
3,COC(=O)c1sccc1S(=O)(=O)Nc1onc(C)c1Br,188 to 194
4,CCOC(=O)c1ccccc1Nc1nc(Nc2ccc3c(c2)CCN(CCOC)CC3)ncc1Cl,78 to 80
5,CC(C)(C)c1cc2c(c(C(C)(C)C)c1)OC(=O)C2=O,165 to 168
6,OCC1OC(c2ccc(F)c(Cc3ccc(-c4nccs4)s3)c2)C(O)C(O)C1O (stereo unspecified),162
7,N#CC(N)c1c(Cl)cccc1Cl (stereo unspecified),> 300
8,COc1cc2c(cc1-c1cccnc1)-c1c(-c3cccs3)c3c(n1CC2)C(=O)N(C(C)C)CCNC3,227 to 229
9,C[C@H](NC(=O)OC(C)(C)C)[C@@H]1CCN(c2nc3c(cc2F)c(=O)[nH]c(=O)n3C2CC2)C1,249 to 251
10,O=C(O)[C@@H]1CCC(=O)N1C(=O)c1ccccc1,140 to 141
11,CC(O)c1cc(F)ccc1Oc1nc2ccc(NC(=O)Nc3cccc([N+](=O)[O-])c3)cc2cc1Cc1ccccc1 (stereo unspecified),217 to 219
12,COCCn1c(C)nc2cnc3ccccc3c21,128 to 130
13,COC(=O)C1Cc2sc(N)c(C(=O)c3ccccc3Cl)c2C1 (stereo unspecified),120 to 125
14,CC1(C)OC(O)C(Oc2ccc(F)c(F)c2)=C1c1ccc(S(C)(=O)=O)cc1 (stereo unspecified),151
15,COC(=O)C=Cc1cc2cc(NC(=O)c3cc4ccccc4o3)ccc2[nH]1,259 to 260
16,CCCCCCCCOC(=O)NCCCCCCNC(=O)OCCCCCCCC,106 to 107
17,O=c1cc(OCc2ccccc2)c2ccc(O)cc2o1,234
18,CC(C)(C)OC(=O)N1CC2CN(c3nc(C4=NOC(c5c(F)cccc5F)C4)cs3)CC2C1 (stereo unspecified),78.9 to 80.2

row,Compound,melting point [°C]
1,CCOc1cc(C)ccc1NC1CCN(CCCCNC(=O)c2ccc(-c3ccc(C(F)(F)F)cc3)cc2)CC1,162
2,CN(C)c1ccc(C(=O)NC2CCN(C(c3ccccc3)c3ccccc3)CC2)c(N)c1,118
3,O=C(SCCC(=O)N1C(c2cccs2)SC[C@H]1C(=O)O)c1ccccc1 (stereo partly specified),141 to 143
4,CC(C)(C)C(=O)C(=[N+]=[N-])S(=O)(=O)C1CCCCC1,80.5 to 82
5,Cc1nc(-c2ncn3c2[C@@H]2CCCN2C(=O)c2c(Cl)cccc2-3)n(C)n1,221 to 222
6,CCCC(=O)Nc1cc(CNc2ccccc2C(=O)Nc2cc3ccccc3cn2)ccn1,173
7,COC(=O)C1=C(C)NC(C)=C(C#N)C1c1cccc(N)c1 (stereo unspecified),234 to 235
8,Cn1ncnc1COc1nc2c(cc1-c1ccccc1)nnn2-c1ccccc1,153 to 156
9,Cc1cc(C)cc(CCCn2c(=O)c3c(N4CCN(C)CC4)cc(Cl)cc3n(Cc3ccccc3)c2=O)c1,67 to 73
10,COC(=O)c1cc2n(n1)-c1ccc(Cl)cc1C(c1ccccc1)NC2=O (stereo unspecified),236 to 238
11,Cn1cnc2c(ccc3[nH]cc(CCN)c32)c1=O,279 to 285
12,COC(=O)CCc1conc1-c1ccc(F)c(Br)c1,57 to 58
13,CCOC(=O)CCCCCCCCCCNC(=O)CN(CCN(CCN(CC(=O)O)CC(=O)O)CC(=O)O)CC(=O)O,155 to 157
14,CCC(Oc1ccc(Cl)cc1)C(=O)OC1CC(O)C=C2C=CC(C)C(CCC3CC(O)CC(=O)O3)C21 (mixture of isomers),140 to 142
15,Cc1cc(COc2nn(Cc3ccccc3)cc2C(=O)O)ccc1OCc1nc(-c2ccco2)oc1C,176 to 177
16,CN1C2CCC1CC(n1cc(-c3ccc(Oc4ccccc4)cc3)c3c(N)ncnc31)C2 (stereo unspecified),238 to 250
17,COC(=O)c1cc(-c2nc(COc3ccc(CCl)cc3OC)c(C)o2)ccc1C,139 to 140
18,O=C(Nc1ccc(C(F)(F)F)cc1)c1ccc(-c2nn(Cc3ccccc3)c3ccccc23)o1,205 to 206
